24 compounds from US9840501B2, “Morpholin-pyridine derivatives” (Hoffmann-La Roche Inc., priority 2014, dated 2017) can be followed below.

Test [1] deals with mouse TAAR1 (Mus musculus (Mouse), UniProt Q923Y8). The test is described as follows: Radioligand binding assay on mouse TAAR1. The conditions noted are these: for Ki: mouse TAAR1, membranes of stably transfected HEK-293 cells, first value of the pair, read-out: Ki (μM) mouse/rat: mouse. On the procedure:
(§1) For the construction of expression plasmids the coding sequences of human, rat and mouse TAAR 1 were amplified from genomic DNA essentially as described by Lindemann et al.. The Expand High Fidelity PCR System (Roche Diagnostics) was used with 1.5 mM Mg^2+ and purified PCR products were cloned into pCR2.1-TOPO cloning vector (Invitrogen) following the instructions of the manufacturer. PCR products were subcloned into the pIRESneo2 vector (BD Clontech, Palo Alto, Calif.), and expression vectors were sequence verified before introduction in cell lines.
(§2) For the generation of stably transfected cell lines HEK293 cells were transfected with the pIRESneo2 expression plasmids containing the TAAR coding sequences (described above) with Lipofectamine 2000 (Invitrogen) according to the instructions of the manufacturer, and 24 hrs post transfection the culture medium was supplemented with 1 mg/ml G418 (Sigma, Buchs, Switzerland). After a culture period of about 10 d clones were isolated, expanded and tested for responsiveness to trace amines (all compounds purchased from Sigma) with the cAMP Biotrak Enzyme immunoassay (EIA) System (Amersham) following the non-acetylation EIA procedure provided by the manufacturer.
Radioligand Binding Assay on Mouse TAAR1
(§3) Membrane Preparation and Radioligand Binding.
(§4) Cells were released from culture flasks using trypsin/EDTA, harvested, washed twice with ice-cold PBS (without Ca^2+ and Mg^2+), pelleted at 1,000 rpm for 5 min at 4° C., frozen and stored at −80° C. Frozen pellets were suspended in 20 ml HEPES-NaOH (20 mM, pH 7.4) containing 10 mM EDTA and homogenized with a Polytron (PT 6000, Kinematica) at 14′000 rpm for 20 s. The homogenate was centrifuged at 48,000×g for 30 min at 4° C. Subsequently, the supernatant was removed and discarded, and the pellet resuspended in 20 ml HEPES-NaOH (20 mM, pH 7.4) containing 0.1 mM EDTA using the Polytron (20 s at 14′000 rpm). This procedure was repeated and the final pellet resuspended in HEPES-NaOH containing 0.1 mM EDTA and homogenized using the Polytron. Typically, aliquots of 2 ml membrane portions were stored at −80° C. With each new membrane batch the dissociation constant (Kd) was determined via a saturation curve. […] Nonspecific binding was defined as the amount of ^3[H]—(S)-4-[(ethyl-phenyl-amino)-methyl]-4,5-dihydro-oxazol-2-ylamine bound in the presence of 10 μM unlabeled ligand. All compounds were tested at a broad range of concentrations (10 pM to 10 μM) in duplicates. […] The 96 deep well plates were incubated for 1 hr at 4° C. Incubations were terminated by rapid filtration through Unifilter-96 plates (Packard Instrument Company) and glass filters GF/C (Perkin Elmer) presoaked for 1 hr in polyethylenimine (0.3%) and washed 3 times with 1 ml of cold binding buffer. After addition of 45 μl of Microscint 40 (PerkinElmer) the Unifilter-96 plate was sealed and after 1 hr the radioactivity counted using a TopCount Microplate Scintillation Counter (Packard Instrument Company).

Test [2] deals with rat TAAR1 (Rattus norvegicus (Rat), UniProt Q923Y9). The test is described as follows: Radioligand binding assay on rat TAAR1. To be noted: for Ki: rat TAAR1, membranes of stably transfected HEK-293 cells, second value of the pair, read-out: Ki (μM) mouse/rat: rat. On the procedure: as §1, §2
rat TAAR1, sequence (Q923Y9 whole entry): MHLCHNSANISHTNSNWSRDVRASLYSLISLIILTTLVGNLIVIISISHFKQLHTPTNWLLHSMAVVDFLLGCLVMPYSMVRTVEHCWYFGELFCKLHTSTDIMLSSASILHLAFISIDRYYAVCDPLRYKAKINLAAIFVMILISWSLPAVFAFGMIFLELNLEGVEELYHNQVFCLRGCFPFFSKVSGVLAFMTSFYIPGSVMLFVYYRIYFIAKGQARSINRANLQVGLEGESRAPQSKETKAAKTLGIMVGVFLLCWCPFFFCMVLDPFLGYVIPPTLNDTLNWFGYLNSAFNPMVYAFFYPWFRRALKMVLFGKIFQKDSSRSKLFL
Radioligand Binding Assay on Rat TAAR1
as §3
as §4, with “1′000” for “1,000”, “48′000×g” for “48,000×g”

mouse TAAR1, sequence (Q923Y8 whole entry): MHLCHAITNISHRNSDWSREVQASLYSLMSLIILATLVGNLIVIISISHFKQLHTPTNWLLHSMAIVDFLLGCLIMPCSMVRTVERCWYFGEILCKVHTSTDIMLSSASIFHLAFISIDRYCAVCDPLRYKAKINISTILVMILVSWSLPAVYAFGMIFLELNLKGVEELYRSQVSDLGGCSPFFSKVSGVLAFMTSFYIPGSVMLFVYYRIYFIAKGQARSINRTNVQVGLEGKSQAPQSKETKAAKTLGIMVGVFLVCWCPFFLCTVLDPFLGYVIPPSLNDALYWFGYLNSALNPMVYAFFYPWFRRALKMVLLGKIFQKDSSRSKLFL

Turning to `CCCCc1cc(C(=O)Nc2ccc([C@@H]3CNCCO3)nc2)[nH]n1` [Example 91, 3-Butyl-N-[6-[(2S)-morpholin-2-yl]-3-pyridyl]-1H-pyrazole-5-carboxamide], the figures for the Ki in test [1] and in test [2] were 0.0031 µM and 0.0061 µM, respectively.

As to `CCc1n[nH]c(C(=O)Nc2ccc([C@H]3CNCCO3)nc2)c1Br` [Example 84, 4-Bromo-3-ethyl-N-[6-[(2R)-morpholin-2-yl]-3-pyridyl]-1H-pyrazole-5-carboxamide], the Ki in test [1] was determined as 0.0063 µM; in test [2], 0.0685 µM.

Consider `CC(C)n1nc(OCC(F)(F)F)cc1C(=O)Nc1ccc([C@H]2CNCCO2)nc1` [Example 99, 2-Isopropyl-N-[6-[(2R)-morpholin-2-yl]-3-pyridyl]-5-(2,2,2-trifluoroethoxy)pyrazole-3-carboxamide], for which the values for the Ki in test [1] and in test [2] were 0.0242 µM and 0.0041 µM, respectively.

As for `Cc1n[nH]c(C(=O)Nc2ccc([C@H]3CNCCO3)nc2)c1Cl` [Example 64, 4-Chloro-3-methyl-N-[6-[(2R)-morpholin-2-yl]-3-pyridyl]-1H-pyrazole-5-carboxamide], the Ki in test [1] came to 0.018 µM; in test [2] it was 1.57 µM.

Take `Cc1cc(C(=O)Nc2ccc([C@@H]3CNCCO3)nc2)nc(C(F)(F)F)n1` [Example 69, (S)-6-Methyl-N-(6-(morpholin-2-yl)pyridin-3-yl)-2-(trifluoromethyl)pyrimidine-4-carboxamide]: the Ki is 0.0762 µM in test [1] and 0.0512 µM in test [2].

`CCCCc1cc(C(=O)Nc2ccc([C@H]3CNCCO3)nc2)[nH]n1` [Example 97, 3-Butyl-N-[6-[(2R)-morpholin-2-yl]-3-pyridyl]-1H-pyrazole-5-carboxamide]: the Ki in test [1] was found to be 0.0043 µM; in test [2], 0.0387 µM.

Regarding `Clc1ccc(Nc2ccc([C@H]3CNCCO3)nc2)nc1` [Example 26, N-(5-Chloro-2-pyridyl)-6-[(2R)-morpholin-2-yl]pyridin-3-amine], the Ki worked out at 0.0118 µM in test [1] and 0.424 µM in test [2].

Regarding `CCCc1n[nH]c(C(=O)Nc2cnc(C3CNCCO3)c(C)c2)c1Cl` (racemic) [Example 118, (RS)-4-Chloro-N-(5-methyl-6-morpholin-2-yl-3-pyridyl)-3-propyl-1H-pyrazole-5-carboxamide], the Ki in test [1] came to 0.0468 µM; in test [2] it was 0.597 µM.

For `CCN(C[C@H]1COC(N)=N1)c1ccccc1` [^3[H]—(S)-4-[(ethyl-phenyl-amino)-methyl]-4,5-dihydro-oxazol-2-ylamine, reference compound], the Kd (commonly the equilibrium constant for the complex coming apart) in test [1] (mouse TAAR1 membranes, saturation curve, usual value per membrane batch, read-out: dissociation constant (Kd) of the radioligand) was approximately 0.0007 µM; in test [2] (rat TAAR1 membranes, saturation curve, usual value per membrane batch, read-out: dissociation constant (Kd) of the radioligand) it was approximately 0.0023 µM.

In the case of `Brc1ccc(Nc2ccc([C@@H]3CNCCO3)nc2)nc1` [Example 21, N-(5-Bromo-2-pyridyl)-6-[(2S)-morpholin-2-yl]pyridin-3-amine], the Ki in test [1] is 0.002 µM; in test [2], 0.0324 µM.

Turning to `CCCCc1n[nH]c(C(=O)Nc2ccc([C@@H]3CNCCO3)nc2)c1F` [Example 90, 3-Butyl-4-fluoro-N-[6-[(2S)-morpholin-2-yl]-3-pyridyl]-1H-pyrazole-5-carboxamide], the Ki is 0.0038 µM in test [1] and 0.0269 µM in test [2].

For `CC(C)c1n[nH]c(C(=O)Nc2ccc([C@@H]3CNCCO3)nc2)c1Cl` [Example 120, 4-Chloro-3-isopropyl-N-[6-[(2S)-morpholin-2-yl]-3-pyridyl]-1H-pyrazole-5-carboxamide], the Ki in test [1] amounted to 0.0311 µM; in test [2] it was 0.0203 µM.

For `O=C(Nc1ccc([C@H]2CNCCO2)nc1)c1ccc(Cl)cc1` [Example 51, 4-Chloro-N-[6-[(2R)-morpholin-2-yl]-3-pyridyl]benzamide], the Ki in test [1] is 0.0039 µM; in test [2] it was 0.212 µM.

Take `Cc1cc(NC(=O)Nc2cccc(Cl)c2)cnc1C1CNCCO1` (racemic) [Example 119, (RS)-1-(3-Chlorophenyl)-3-(5-methyl-6-morpholin-2-yl-3-pyridyl)urea]: the Ki in test [1] was 0.0533 µM; in test [2] it was 0.243 µM.

`FC(F)(F)c1cccc(Nc2ccc([C@H]3CNCCO3)nc2)n1` [Example 50, N-[6-[(2R)-Morpholin-2-yl]-3-pyridyl]-6-(trifluoromethyl)pyridin-2-amine]: the Ki in test [1] came out at 0.005 µM; in test [2] it was 0.122 µM.

Consider `O=C(Nc1cnc(C2CNCCO2)nc1)Nc1cccc(Cl)c1` (racemic) [Example 73, (RS)-1-(3-Chlorophenyl)-3-(2-morpholin-2-ylpyrimidin-5-yl)urea], for which the Ki stood at 0.0059 µM in test [1] and 1.96 µM in test [2].

`Clc1ccc(Nc2ccc(C3CNCCO3)nc2)cc1` (racemic) [Example 1, (RS)—N-(4-Chlorophenyl)-6-morpholin-2-yl-pyridin-3-amine]: the Ki was determined as 0.0017 µM in test [1] and 0.071 µM in test [2].

On to `CC(C)c1cc(C(=O)Nc2ccc([C@@H]3CNCCO3)nc2)[nH]n1` [Example 38, 3-Isopropyl-N-[6-[(2S)-morpholin-2-yl]-3-pyridyl]-1H-pyrazole-5-carboxamide], for which the Ki in test [1] was 0.0263 µM; in test [2] it was 0.0727 µM.

Consider `Brc1ccc(Nc2ccc(C3CNCCO3)nc2)cc1` (racemic) [Example 2, (RS)—N-(4-Bromophenyl)-6-morpholin-2-yl-pyridin-3-amine], for which the Ki in test [1] worked out at 0.0018 µM; in test [2] it was 0.0437 µM.

`CC(C)Cc1cc(C(=O)Nc2ccc([C@@H]3CNCCO3)nc2)[nH]n1` [Example 88, 3-Isobutyl-N-[6-[(2S)-morpholin-2-yl]-3-pyridyl]-1H-pyrazole-5-carboxamide]: the Ki in test [1] amounted to 0.0113 µM; in test [2], 0.011 µM.

With `CC(C)Cc1cc(C(=O)Nc2ccc([C@H]3CNCCO3)nc2)[nH]n1` [Example 94, 3-Isobutyl-N-[6-[(2R)-morpholin-2-yl]-3-pyridyl]-1H-pyrazole-5-carboxamide], the Ki turned out to be 0.0216 µM in test [1] and 0.107 µM in test [2].

For the compound `O=C(Nc1ccc([C@H]2CNCCO2)nc1)c1ccc(OCC(F)(F)F)nc1` [Example 56, N-[6-[(2R)-Morpholin-2-yl]-3-pyridyl]-6-(2,2,2-trifluoroethoxy)pyridine-3-carboxamide], the figures for the Ki in test [1] and in test [2] were 0.0075 µM and 0.0334 µM, respectively.

With `O=C(Nc1cnc(C2CNCCO2)c(F)c1)c1ccnc(C(F)(F)F)c1` (racemic) [Example 113, (RS)—N-(5-Fluoro-6-morpholin-2-yl-3-pyridyl)-2-(trifluoromethyl)pyridine-4-carboxamide], the Ki in test [1] came out at 0.0557 µM; in test [2], 1.31 µM.

For `CCCc1n[nH]c(C(=O)Nc2ccc([C@H]3CNCCO3)nc2)c1Cl` [Example 59, 4-Chloro-N-[6-[(2R)-morpholin-2-yl]-3-pyridyl]-3-propyl-1H-pyrazole-5-carboxamide], the Ki was determined as 0.0063 µM in test [1] and 0.021 µM in test [2].
